Test results from patent publication US20180042234A1, “FUNGICIDAL PYRAZOLES” (E I DU PONT DE NEMOURS AND COMPANY, priority 2015, published 2018).
Marks after values point to notes of the source that are not given here.

System: Septoria nodorum
Experiment: Test E: Septoria glume blotch, preventive spray on wheat seedlings, visual disease rating
Format: in vivo
Settings: 200 ppm test suspension
Description: (§1) General protocol for preparing test suspensions for Tests A-E: the test compounds were first dissolved in acetone in an amount equal to 3% of the final volume and then suspended at the desired concentration (in ppm) in acetone and purified water (50/50 mix by volume) containing 250 ppm of the surfactant Trem® 014 (polyhydric alcohol esters). The resulting test suspensions were then used in Tests A-E. Spraying a 200 ppm test suspension to the point of run-off on the test plants was the equivalent of a rate of 800 g/ha.
The test suspension was sprayed to the point of run-off on wheat seedlings. The following day the seedlings were inoculated with a spore suspension of Septoria nodorum (the causal agent of Septoria glume blotch) and incubated in a saturated atmosphere at 20° C. for 48 h, and then moved to a growth chamber at 20° C. for 9 days, after which time visual disease ratings were made.
(§2) Results for Tests A-E are given in Table A. In the Table, a rating of 100 indicates 100% disease control and a rating of 0 indicates no disease control (relative to the controls). A dash (-) indicates no test results. All results are for 200 ppm except where followed by an asterisk “*” which indicates a 250 ppm test suspension was used or a double asterisk “**” which indicates a 50 ppm test suspension was used.

SMILES	Test E disease control rating
CCC(=NOC(C)C)c1c(C)nn(C)c1Oc1c(F)cccc1F [Compound 48]	0%
CCC(=NOC)c1c(C)nn(C)c1Oc1c(F)cccc1F [Compound 49]	0%
CCON=C(CC)c1c(C)nn(C)c1Oc1c(F)cccc1F [Compound 50]	0%
CC=C(CC)c1c(C)nn(C)c1Oc1c(F)cccc1F [Compound 51]	0%
Cc1nn(C)c(Nc2c(F)cc(Cl)cc2F)c1C1CCCC1 [Compound 52, N-(4-chloro-2,6-difluorophenyl)-4-cyclopenyl-1,3-dimethyl-1H-pyrazol-5-amine]	0%

Same assay, conditions: 250 ppm test suspension (*)

SMILES	Test E disease control rating
Cc1nn(C)c(Nc2ccc(F)cc2Cl)c1C1=CCC(C#N)CC1 (centres unmarked) [Compound 13]	0* %
Cc1nn(C)c(Nc2ccc(F)cc2)c1C1CCC(C)(C)CC1 [Compound 14]	62* %
Cc1nn(C)c(Nc2ccc(F)cc2F)c1C1CCC(C)CC1 (centres unmarked) [Compound 16]	19* %
CC(=NO)c1c(C)nn(C)c1Nc1ccc(F)cc1Cl [Compound 34]	0* %
C=C(C)c1c(C)nn(C)c1Nc1c(F)cc([N+](=O)[O-])cc1F [Compound 36]	0* %

System: Botrytis cinerea
Experiment: Test C: tomato Botrytis, preventive spray on tomato seedlings, visual disease rating
Format: in vivo
Settings: 200 ppm test suspension
Description: as §1
The test suspension was sprayed to the point of run-off on tomato seedlings. The following day the seedlings were inoculated with a spore suspension of Botrytis cinerea (the causal agent of tomato Botrytis) and incubated in a saturated atmosphere at 20° C. for 48 h, and then moved to a growth chamber at 24° C. for 3 days, after which time visual disease ratings were made.
as §2

SMILES	Test C disease control rating
CCC(=NOC(C)C)c1c(C)nn(C)c1Oc1c(F)cccc1F [Compound 48]	18%
CCC(=NOC)c1c(C)nn(C)c1Oc1c(F)cccc1F [Compound 49]	39%
CCON=C(CC)c1c(C)nn(C)c1Oc1c(F)cccc1F [Compound 50]	3%
CC=C(CC)c1c(C)nn(C)c1Oc1c(F)cccc1F [Compound 51]	15%
Cc1nn(C)c(Nc2c(F)cc(Cl)cc2F)c1C1CCCC1 [Compound 52, N-(4-chloro-2,6-difluorophenyl)-4-cyclopenyl-1,3-dimethyl-1H-pyrazol-5-amine]	96%

Same assay, conditions: 250 ppm test suspension (*)

SMILES	Test C disease control rating
Cc1nn(C)c(Nc2ccc(F)cc2Cl)c1C1=CCC(C#N)CC1 (centres unmarked) [Compound 13]	79* %
Cc1nn(C)c(Nc2ccc(F)cc2)c1C1CCC(C)(C)CC1 [Compound 14]	0* %
Cc1nn(C)c(Nc2ccc(F)cc2F)c1C1CCC(C)CC1 (centres unmarked) [Compound 16]	19* %
CC(=NO)c1c(C)nn(C)c1Nc1ccc(F)cc1Cl [Compound 34]	0* %
C=C(C)c1c(C)nn(C)c1Nc1c(F)cc([N+](=O)[O-])cc1F [Compound 36]	0* %
Cc1nn(C)c(Nc2ccc(F)cc2F)c1C1CCC(C#N)CC1 (centres unmarked) [Compound 63]	0* %
Cc1nn(C)c(Nc2ccc(F)cc2)c1C1CCC(C)CC1 (centres unmarked) [Compound 64]	0* %
Cc1nn(C)c(Nc2ccc(F)cc2Cl)c1C1CCC(C#N)CC1 (centres unmarked) [Compound 65]	0* %

System: Septoria tritici
Experiment: Test B: wheat leaf blotch, preventive spray on wheat seedlings, visual disease rating
Format: in vivo
Settings: 200 ppm test suspension
Description: as §1
(§3) The test suspension was sprayed to the point of run-off on wheat seedlings. The following day the seedlings were inoculated with a spore suspension of Septoria tritici (the causal agent of wheat leaf blotch) and incubated in a saturated atmosphere at 24° C. for 48 h, and then moved to a growth chamber at 20° C. for 19 days, after which time visual disease ratings were made.
as §2

SMILES	Test B disease control rating
CCC(=NOC(C)C)c1c(C)nn(C)c1Oc1c(F)cccc1F [Compound 48]	32%
CCC(=NOC)c1c(C)nn(C)c1Oc1c(F)cccc1F [Compound 49]	16%
CCON=C(CC)c1c(C)nn(C)c1Oc1c(F)cccc1F [Compound 50]	40%
CC=C(CC)c1c(C)nn(C)c1Oc1c(F)cccc1F [Compound 51]	0%
Cc1nn(C)c(Nc2c(F)cc(Cl)cc2F)c1C1CCCC1 [Compound 52, N-(4-chloro-2,6-difluorophenyl)-4-cyclopenyl-1,3-dimethyl-1H-pyrazol-5-amine]	99%

Same assay, conditions: 250 ppm test suspension (*)

SMILES	Test B disease control rating
Cc1nn(C)c(Nc2ccc(F)cc2Cl)c1C1=CCC(C#N)CC1 (centres unmarked) [Compound 13]	97* %
Cc1nn(C)c(Nc2ccc(F)cc2)c1C1CCC(C)(C)CC1 [Compound 14]	33* %
Cc1nn(C)c(Nc2ccc(F)cc2F)c1C1CCC(C)CC1 (centres unmarked) [Compound 16]	0* %
CC(=NO)c1c(C)nn(C)c1Nc1ccc(F)cc1Cl [Compound 34]	76* %
C=C(C)c1c(C)nn(C)c1Nc1c(F)cc([N+](=O)[O-])cc1F [Compound 36]	88* %
Cc1nn(C)c(Nc2ccc(F)cc2F)c1C1CCC(C#N)CC1 (centres unmarked) [Compound 63]	55* %
Cc1nn(C)c(Nc2ccc(F)cc2)c1C1CCC(C)CC1 (centres unmarked) [Compound 64]	58* %
Cc1nn(C)c(Nc2ccc(F)cc2Cl)c1C1CCC(C#N)CC1 (centres unmarked) [Compound 65]	54* %

System: Blumeria graminis f sp. tritici
Experiment: Test D: wheat powdery mildew, preventive spray on wheat seedlings, visual disease rating
Format: in vivo
Settings: 200 ppm test suspension
Description: as §1
The test suspension was sprayed to the point of run-off on wheat seedlings. The following day the seedlings were inoculated with a spore dust of Blumeria graminis f sp. tritici, (also known as Erysiphe graminis f sp. tritici, the causal agent of wheat powdery mildew) and incubated in a growth chamber at 20° C. for 8 days, after which time visual disease ratings were made.
as §2

SMILES	Test D disease control rating
CCC(=NOC(C)C)c1c(C)nn(C)c1Oc1c(F)cccc1F [Compound 48]	0%
CCC(=NOC)c1c(C)nn(C)c1Oc1c(F)cccc1F [Compound 49]	0%
CCON=C(CC)c1c(C)nn(C)c1Oc1c(F)cccc1F [Compound 50]	0%
CC=C(CC)c1c(C)nn(C)c1Oc1c(F)cccc1F [Compound 51]	0%
Cc1nn(C)c(Nc2c(F)cc(Cl)cc2F)c1C1CCCC1 [Compound 52, N-(4-chloro-2,6-difluorophenyl)-4-cyclopenyl-1,3-dimethyl-1H-pyrazol-5-amine]	98%

Same assay, conditions: 250 ppm test suspension (*)

SMILES	Test D disease control rating
Cc1nn(C)c(Nc2ccc(F)cc2Cl)c1C1=CCC(C#N)CC1 (centres unmarked) [Compound 13]	13* %
Cc1nn(C)c(Nc2ccc(F)cc2)c1C1CCC(C)(C)CC1 [Compound 14]	27* %
Cc1nn(C)c(Nc2ccc(F)cc2F)c1C1CCC(C)CC1 (centres unmarked) [Compound 16]	97* %
CC(=NO)c1c(C)nn(C)c1Nc1ccc(F)cc1Cl [Compound 34]	64* %
C=C(C)c1c(C)nn(C)c1Nc1c(F)cc([N+](=O)[O-])cc1F [Compound 36]	27* %
Cc1nn(C)c(Nc2ccc(F)cc2F)c1C1CCC(C#N)CC1 (centres unmarked) [Compound 63]	96* %
Cc1nn(C)c(Nc2ccc(F)cc2)c1C1CCC(C)CC1 (centres unmarked) [Compound 64]	96* %
Cc1nn(C)c(Nc2ccc(F)cc2Cl)c1C1CCC(C#N)CC1 (centres unmarked) [Compound 65]	13* %

System: Puccinia recondita f. sp. tritici
Experiment: Test A: wheat leaf rust, preventive spray on wheat seedlings, visual disease rating
Format: in vivo
Settings: 200 ppm test suspension; 100 = 100% disease control, 0 = no control
Description: as §1
as §3, with “Puccinia recondita f. sp.” for “Septoria”, “rust)” for “blotch)”, “20°” for “24°”, “24” for “48”, “7” for “19”
as §2

SMILES	Test A disease control rating
CCC(=NOC(C)C)c1c(C)nn(C)c1Oc1c(F)cccc1F [Compound 48]	0%
CCC(=NOC)c1c(C)nn(C)c1Oc1c(F)cccc1F [Compound 49]	0%
CCON=C(CC)c1c(C)nn(C)c1Oc1c(F)cccc1F [Compound 50]	0%
CC=C(CC)c1c(C)nn(C)c1Oc1c(F)cccc1F [Compound 51]	0%
Cc1nn(C)c(Nc2c(F)cc(Cl)cc2F)c1C1CCCC1 [Compound 52, N-(4-chloro-2,6-difluorophenyl)-4-cyclopenyl-1,3-dimethyl-1H-pyrazol-5-amine]	89%

Same assay, conditions: 250 ppm test suspension (*)

SMILES	Test A disease control rating
Cc1nn(C)c(Nc2ccc(F)cc2Cl)c1C1=CCC(C#N)CC1 (centres unmarked) [Compound 13]	67* %
Cc1nn(C)c(Nc2ccc(F)cc2)c1C1CCC(C)(C)CC1 [Compound 14]	67* %
Cc1nn(C)c(Nc2ccc(F)cc2F)c1C1CCC(C)CC1 (centres unmarked) [Compound 16]	53* %
CC(=NO)c1c(C)nn(C)c1Nc1ccc(F)cc1Cl [Compound 34]	28* %
C=C(C)c1c(C)nn(C)c1Nc1c(F)cc([N+](=O)[O-])cc1F [Compound 36]	55* %
Cc1nn(C)c(Nc2ccc(F)cc2F)c1C1CCC(C#N)CC1 (centres unmarked) [Compound 63]	86* %
Cc1nn(C)c(Nc2ccc(F)cc2)c1C1CCC(C)CC1 (centres unmarked) [Compound 64]	55* %
Cc1nn(C)c(Nc2ccc(F)cc2Cl)c1C1CCC(C#N)CC1 (centres unmarked) [Compound 65]	55* %
